Experimental data published in patent US12673972B2, “Lung-specific targeting-peptide (LTP), compositions, and uses thereof” (University of Pittsburgh—Of the Commonwealth System of …, priority 2019, dated 2026).
Entries after “also recorded” stand apart in the source; their conditions may differ. No end group written: not given here. Cy5.5 = Cy5.5 fluorescent label

Experiments:
CD1 mice = assay: In vivo biodistribution of fluorescently labeled peptides in mice (IVIS ex vivo organ imaging, confocal microscopy); details: for cardiac uptake / uptake in lung epithelial tissue: 10 mg/kg intravenously, 15 minutes circulation, CD1 mice; for uptake in lung epithelial tissue: confocal and IVIS; for greater lung than liver uptake (lung-to-liver ratio of fluorescent intensity) / lung transduction at lower doses: S7A 5 mg/kg, R11A 5 and 1 mg/kg, 15 minutes, ex vivo IVIS; for lung transduction at lower doses: even at the lowest injected dose
Procedure: CTP-B, CTP-P2A, CTP-S7A, CTP-R11A and a random negative control peptide (RAN), were further tested in vivo in mice, in triplicate. Wild-type, 6-week old, male and female CD1 mice were weighed and anesthetized. Mice were injected intravenously with the various peptides, each at a dose of 10 mg/kg. Peptides circulated for 15 minutes, after which mice were euthanized and fixed with 3 ml of 10% formalin injected through the left ventricular apex. Multiple organs (heart, lungs, liver, kidney, spleen, brain, large intestines, small intestines, testes/ovaries, and eyeball) were harvested, placed in a 12-well plate, and immediately imaged using a Perkin-Elmer IVIS imaging system using the relevant excitation-emission laser/detector wavelengths. After the imaging was complete, organs were placed in 10% formalin at room temperature. Following overnight fixation in formalin, organs were transferred to 30% sucrose at 4° C. Following overnight incubation in sucrose, all organs were embedded and frozen in optical cutting medium, 10 μm thick sections were cut, mounted with DAPI, and cover-slipped. Slides were imaged using confocal fluorescent microscopy using the same parameters for imaging between mice, peptides and organs, to allow for comparison and quantification of fluorescence intensities in the relevant regions of interest.
Injections were repeated in a total of 9 CD1 mice with identical lung uptake; all images were acquired with the same confocal microscope parameters to allow for cross-animal comparison; however, at the same laser intensity, the lung sample was saturated. […] Wild-type mice were injected with Cy5.5 labeled R11A at a dose of 10 mg/kg, and euthanized mice after 15 minutes; multiple organs were then harvested for imaging.
Wild-type CD1 mice were then injected with lower doses of fluorescently labeled S7A peptide (5 mg/kg) or R11A peptide (5 and 1 mg/kg). The peptides were allowed to circulate for 15 minutes, mice were sacrificed, multiple organs were harvested, and ex vivo IVIS imaging was performed. Ex vivo imaging of organs harvested from mice without injected peptides was performed in order to subtract background auto-fluorescent signal from the test organs. IVIS imaging of multiple organs was conducted after administering decreasing doses of peptide from 5 to 1 mg/kg. […] Quantification of IVIS imaging for total fluorescent intensity for heart, lung, liver, kidney, spleen, and brain is shown in FIG. 4. Using the fluorescent intensity values, Lung-to-Liver ratios for both peptides were calculated at the tested doses.

H9C2 cells [1] = assay: FACS uptake of Cy5.5-labeled alanine-scan peptides in H9C2 cells; assay type: cell-based, rat; details: 10 μM peptide, 30 minutes at 37° C., FACS gated on live cells
Procedure: An alanine scan of the cardiac targeting peptide (CTP, APWHLSSQYSRT, SEQ ID NO: 3) was performed, in which each amino acid was replaced sequentially with alanine, resulting in 11 different “alanine mutant” versions of CTP. Solid phase peptide synthesis of the alanine mutants of CTP fluorescently labeled with Cyanine 5.5 (Cy5.5) was conducted using standard fluorenylmethoxycarbonyl protecting group organic synthesis (FMOC) conditions on a Liberty CEM Microwave Peptide Synthesizer. Cleavage of the fully-protected CTP peptide fragment from the 2-chlorotrityl solid support was accomplished using 1% Trifluoroacetic acid (TFA)/methylene chloride (DCM), followed by elution of the peptide using TFA+scavengers, followed by isolation of the crude product by precipitation in Diethyl Ether (EtO2). Fluorescent dye labelling of the N-terminal amine was performed in solution using Cy5.5-NHS (Lumiprobe, Inc). The resulting crude cyclic CTP-Cy5.5 peptide was purified by preparative C-5 Reversed Phase High Performance Liquid Chromatography (RP-HPLC) on a Waters Delta Prep 4000 chromatography system, using standard Acetonitrile/0.1% TFA gradient conditions. Analytical C-5 RP-HPLC characterization on a Waters Alliance chromatography system followed by Matrix-Assisted Laser Desorption/Ionization Time-Of-Flight Mass Spectrometry (MALDI-TOF-MS) analysis on an Applied Biosystems Voyager workstation was used to confirm the expected mass and purity of the final product. For the purposes of nomenclature, the CTP mutants are identified by the original amino acid followed by its numbered position and A to indicate alanine at the substituted position, e.g., R11A indicates arginine at position 11 of CTP substituted with alanine (APWHLSSQYSAT, SEQ ID NO: 2). CTP was also synthesized as a 6-amino acid N-terminal peptide (CTP-A, APWHLS, SEQ ID NO: 4), and as a 6-amino acid C-terminal peptide (CTP-B, SQYSRT, SEQ ID NO: 5).
For in vitro testing, a rat cardiomyoblast cell line, H9C2 was incubated with each of the alanine-scan peptides, including parental peptide CTP and variants CTP-A and CTP-B; each condition was run in triplicate. For the incubation, peptides were received as lyophilized powders and made into 10 mM stock solutions in DMSO. The stock solution was diluted in culture medium to a final concentration of 10 μM for each peptide, and incubated for 30 minutes at 37° C. with H9C2 cells. Following the incubation period, cells were washed extensively with PBS, trypsinized and fluorescence activated cell sorting (FACS) was performed in biological triplicates. […] There was almost a 3-4 fold increase in median fluorescence intensities compared with CTP for S7A peptide and R11A peptide (FIG. 1).

[2] = test system: human bronchial epithelial cells from patients with CF; assay: Uptake at 4° C with fluorescently labeled transferrin (Tf-488) in human bronchial epithelial cells from patients with CF; assay type: cell-based; details: for uptake relative to random peptide: 10 μM, 1 hour on ice at 4° C. then 37° C., times 0, 5 and 30 minutes; for energy dependence of internalization: occurred even at 4° C.
Procedure: To further characterize uptake of S7A peptide and R11A peptide in cells of interest, human bronchial epithelial cells from patients with CF were grown on cover-slips. Cells were starved at 37° C. for 1 hour in minimal media (MEM media+0.5% Bovine Serum Albumin (BS)+25 mM Hepes buffer at pH 7.4), washed with cold PBS, incubated on ice at 4° C. with fluorescently labeled transferrin (Tf-488) and 10 μM of test peptide (Random, S7A peptide, or R11A peptide) for 1 hour before being shifted to a 37° C. water-bath. Cover-slips were fixed at times 0, 5 and 30 minutes, with random peptide samples fixed only at 0 and 30 minutes.

[3] = test system: human bronchial epithelial cells from patients with Cystic Fibrosis (CF); assay: Confocal uptake in human bronchial epithelial cells from patients with Cystic Fibrosis; assay type: cell-based; details: for uptake by confocal microscopy: 10 μM, 0, 2, 10 or 30 minutes at 37° C./5% CO2, FIG. 6A; for quantification of fluorescence intensity (uptake): FIG. 6B
Procedure: Cells were grown on coverslips, incubated with 10 μM of S7A peptide, R11A peptide, or a random, negative control peptide, for 0, 2, 10, or 30 minutes at 37° C./5% CO2. Following incubation, cells were washed with prewarmed PBS, cross-stained with DAPI, fixed, and mounted on slides for confocal microscopy. […] In the time 0 and 2 minute timepoints, only the DAPI nuclear stain is visible, with cytoplasmic staining for the LTPs growing visible at 10 minutes and dominating the field of view at 30 minutes.

H9C2 cells [4] = assay: Confocal microscopy of H9C2 cells transduced with linear or cyclic CTP; assay type: cell-based, rat; details: for Mean (fluorescence) / Subtraction (mean minus background fluorescence): transduced H9C2 cells, confocal quantification
Text: The cardiac targeting peptide (CTP, SEQ ID NO: 3) was cyclized by establishing a chemical bond between the amino and carboxyl termini (between the alpha-amino group of N-terminal Lysine and the C-terminus of the peptide sequence), and subsequently labelled with a Cy5.5 fluorescent label at the epsilon amino group of the N-terminal lysine.
The cyclic form of CTP was then compared to the linear form of CTP using confocal microscopy of transduced H9C2 cells, using the protocol as described in Example 1 above. […] Quantification of the fluorescence intensity, as shown in FIG. 10B and Table 2, confirmed the enhanced fluorescent activity.

Row | Substance | cardiac uptake (CD1 mice) | uptake of the fluorescently labeled peptide into H9C2 cells as compared to full-length, parental CTP (H9C2 cells [1]) | uptake relative to random peptide [2] | energy dependence of internalization [2] | uptake by confocal microscopy [3] | quantification of fluorescence intensity (uptake) ([3]; 10 μM) | uptake in lung epithelial tissue (CD1 mice) | greater lung than liver uptake (lung-to-liver ratio of fluorescent intensity) (CD1 mice) | lung transduction at lower doses (CD1 mice) | Mean (fluorescence) (H9C2 cells [4]) | Subtraction (mean minus background fluorescence) (H9C2 cells [4]) | uptake of cyclic format relative to linear format (H9C2 cells [4]; confocal imaging, FIG. 10A) | uptake and fluorescence intensity compared between test peptides ([3]; 10 μM, confocal microscopy, FIG. 6A)
1 | AAWHLSSQYSRT [CTP-P2A] | results similar to what was predicted from in vitro H9C2 transduction | statistically significantly higher uptake | – | – | – | – | – | – | – | – | – | – | –
2 | SQYSRT [CTP-B, 6-amino acid C-terminal peptide of CTP] | results similar to what was predicted from in vitro H9C2 transduction | statistically significantly higher uptake | – | – | – | – | – | – | – | – | – | – | –
3 | APWHLSSQYSAT (also: Cy5.5 label, place not given here) [R11A, Lung-specific targeting peptide, alanine mutant of CTP; tested Cy5.5-labeled] | did not show significant cardiac uptake; also recorded: without significant cardiac uptake | statistically significantly higher uptake | robust uptake | not energy-dependent | robust uptake | significantly high uptake | Robust lung uptake | 8-9 fold | Robust lung transduction | – | – | – | –
4 | APWHLSSQYSRT [Linear CTP, cardiac targeting peptide described in WO2019226785A1, parental peptide, reference compound] | – | – | – | – | – | – | – | – | – | 362.478 | 134.777 | – | –
5 | KAPWHLSSQYSRT (cyclo(K(Cy5.5)APWHLSSQYSRT)) [Cyclic CTP, CTP cyclized via N-terminal lysine alpha-amino group to C-terminus, Cy5.5 at lysine epsilon amino group] | – | – | – | – | – | – | – | – | – | 521.590 | 371.123 | enhanced uptake relative to the linear format | –
6 | APWHLSAQYSRT (also: Cy5.5 label, place not given here) [S7A, Lung-specific targeting peptide, alanine mutant of CTP; tested Cy5.5-labeled] | did not show significant cardiac uptake; also recorded: without significant cardiac uptake | statistically significantly higher uptake | robust uptake | not energy-dependent | robust uptake | significantly high uptake | robust uptake | approximately 2.5 fold | Robust lung transduction | – | – | – | higher uptake and fluorescence intensity even than R11A peptide
